The record followed here is publication PMC12022975, “NMR^2-Based Drug Discovery Pipeline Presented on the Oncogenic Protein KRAS” (Journal of the American Chemical Society, 2025).

As usually defined, the Kd is the equilibrium constant for the complex coming apart.

Experiment [1] has as its target T1, KRAS G12V GMP-PNP (Homo sapiens, UniProt P01116, G12V).
T1 construct: His-tag (TEV-cleavable) (cleaved yes); made in house; host or cells: E. coli BL21* DE3
As to the kind of experiment: Ligand-titrated [15N,1H]-HSQC affinity determination (TITAN line shape analysis). Type of experiment: binding. Here is the method: A detailed summary for each ligand can be found in the Supporting Information. The NMR data were processed with nmrpipe, and the affinity was analyzed with TITAN.[29]
The amide signals of L6, V7, T74, and G75 were analyzed using the line shape analysis software TITAN.[29] Additionally, the chemical shift perturbation binding curve was analyzed.
MHz spectrometer equipped with a cryoprobe and SampleJet.
4, 5, 9: [15N, 1H]-sofastHSQC experiments were done on a Bruker Ascend console NEO 500 MHz with a prodigy probe head
titrated to ~100 µM KRAS.
spectrometer equipped with a cryoprobe.
Table SI1: Summary of all [1H, 1H] - NOESY spectra measured for all compounds which a NMR2
(1H) [MS] (1H) [MS] [MS] TIME [MS] [MHZ] TIME PER NOESY [H]

Experiment [2] deals with T1, KRAS G12V GMP-PNP. As to the kind of experiment: STD-NMR screening of the DSI-poised fragment library. The class given is binding. Particulars: STD-NMR hit mark; mixtures of six, 600 μM per ligand, 12 μM KRAS; hit if S/N ratio greater than 5. As to the method:
The STD-NMR and [^15N,^1H]-HSQC screening of the DSI-poised fragment library was performed on a Bruker Avance III HD 600 MHz spectrometer equipped with a cryoprobe and SampleJet. […] Analysis was performed in TopSpin 4.1 and CcpNMR 3.1.[28]
The DSI-poised fragment library comprises 890 molecules, designed such that analogues are readily accessible on the market and can be quickly synthesized.

Setting [3] is: TITAN analysis of L6, V7, T74, G75 amide signals, no saturation reached, interpret with caution, read-out: KD.

Where two headings read alike, the source gives them in different places.

Regarding `N=c1sccn1CC(=O)Nc1ccc(F)cc1` [compound 4], the Kd on KRAS G12V GMP-PNP [1] (setting [3]) turned out to be 10 mM. The STD result at KRAS G12V GMP-PNP [2] is given as “√”.
The matching figures for `COc1ccc(C)cc1NC(=O)Nn1cnnc1` [compound 6]: 15 mM and “√”.
On the same counts, the results for `Nc1ccc(S(=O)(=O)Nc2ccccc2)cc1` [compound 7] are 5.9 mM and “√”.
On the same counts, the results for `CNCc1cnn(-c2ccccc2)c1` [compound 9] are 3.3 mM and “√”.
Turning to `COc1ccc2sc(N)nc2c1` [compound 10], the Kd on KRAS G12V GMP-PNP [1] is 5.9 mM. The STD result at KRAS G12V GMP-PNP [2] is listed as “√”.
Regarding `CS(=O)(=O)Cc1nc2ccccc2[nH]1` [compound 11], the STD result at KRAS G12V GMP-PNP [2] is “√”.
On the same count and under the same terms, for `O=C(CN1CCCC1)Nc1cccc(Cl)c1` [compound 12] the value was “√”; for `COc1ccc2[nH]cc(CN(C)C)c2c1` [compound 13], “√”.
Regarding `Cc1cc2cc[nH]c2cc1C` [compound 14], at KRAS G12V GMP-PNP [1] (setting [3]), the dissociation constant (Kd) amounted to 3.2 mM.
Still for that read-out and setting: for `O=C(O)/C=C/c1c[nH]c2ccccc12` [compound 16] the value was 4.5 mM.
In the case of `c1coc(CNc2nc3ccccc3[nH]2)c1` [fragment 1, C(c1ccco1)Nc1nc(cccc2)c2[nH]1], the Kd on KRAS G12V GMP-PNP [1] (setting [3]) came to 1.2 mM. Also, the STD entry at KRAS G12V GMP-PNP [2] is “√”.
On the same counts, the results for `Cc1[nH]ncc1CNc1ccccc1F` [fragment 5, Cc1n[nH]cc1CNc(cccc1)c1F] are 5.2 mM and “√”.
